{"source": "paper PMC5628579", "about": "“Potent mechanism-based sirtuin-2-selective inhibition by an in situ-generated occupant of the substrate-binding site, “selectivity pocket” and NAD^+-binding site” (Chemical Science, 2017)", "test_system": "acetylated α-tubulin (SIRT2 substrate)", "experiment": "Western blot of acetylated α-tubulin in MDA-MB-231 cells", "assay_type": "cell-based, human", "details": "20 μM, 6 h", "method": "MCF-7 and MDA-MB-231 cells were plated in 96-well plates (initial density: 1 × 10^3 cells per well) and incubated at 37 °C. After 24 h, test compound solutions (50 μL/well) of varying concentrations in medium (DMEM and Leibovitz's L-15 for MCF-7 and MDA-MB-231 cells respectively) for were added to the cells at 37 °C under 5% CO2 in air and left to react for 72 h. Thereafter, the mixtures were treated with 10 μL of AlamarBlue® (AbD Serotec, #BUF012A), incubation was continued at 37 °C for 3 h. The fluorescence in each well was measured with an ARVOTM X3 microplate reader (λex = 540 nm; λem = 590 nm). With the obtained fluorescence readings, it was possible to calculate the percentage of cell growth.\nMDA-MB-231 cells (5 × 10^5 cells/2 mL/dish) were treated for 6 h with the test compounds at the indicated concentrations in the cell culture medium, before the cells were collected and extracted with SDS buffer. The protein concentrations of the lysates were determined using a BCA protein assay.\nEquivalent amounts of protein from each lysate were resolved in 5–20% SDS-polyacrylamide gels and transferred onto PVDF membranes. […]\nFor the differentiation study, the medium was changed to DMEM supplemented with 2% FBS. After incubation with or without 36 for 72 h, the cell morphology was examined using a microscope (Olympus CKX41) and further analyzed with the Photomeasure software (Kenis Ltd.). […]", "data": [{"smiles": "C[C@H](NC(=O)[C@H](CCCCNC(=S)CNC(=O)c1ccccc1Nc1cccc(OCCc2ccccc2)c1)NC(=O)OCc1ccccc1)C(N)=O", "note": "[Compound 36]", "values": [{"measurement": "acetylated α-tubulin level (western blot)", "value": "induced the accumulation of acetylated α-tubulin"}]}]}
